IC50 data for 14 molecules are collected here from patent US10981932B2, “Macrocyclic indole derivatives” (Bayer Aktiengesellschaft, priority 2016, dated 2021).

Where a name gives a salt, the structure may show the parent alone. Read-outs that look alike come from different tables or passages of the source.

For one data set, the system named is SUDHL5. The data set can be described thus: Induction of cytotoxicity (CellTiter-Glo, 5 h), SUDHL5. A general note: In ATP-based viability assays light output follows the ATP content of the culture.
For another data set, the target named is T1, BCL-XL (Homo sapiens, UniProt Q07817).
T1 construct: BCL-XL (amino acids 1-212, C-terminal fused to a hexahistidine (6×His) tag); purchased BPS Bioscience (San Diego, Calif., USA); host or cells: E. coli
T1 sequence (Q07817 1-212): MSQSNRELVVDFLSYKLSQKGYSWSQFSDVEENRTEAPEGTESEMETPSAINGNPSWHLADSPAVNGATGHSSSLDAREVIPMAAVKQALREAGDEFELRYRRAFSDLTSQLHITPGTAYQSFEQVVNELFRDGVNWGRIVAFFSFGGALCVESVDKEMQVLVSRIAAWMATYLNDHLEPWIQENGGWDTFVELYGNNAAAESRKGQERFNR
The data set can be described thus: Protein-protein interaction assay BCL-XL/Bad BH3 peptide (BCL-XL assay), TR-FRET. The data set is classed as binding. Particulars: His-BCL-XL / Bad BH3-derived peptide. On the procedure:
Protein-Protein Interaction Assay: BCL-XL/Bad BH3 Peptide (BCL-XL Assay)
The dose-dependent inhibition by the compounds described in this invention of the interaction between […] and the BH3 domain of Bad (both human) was determined using a steady state binding competition assay with time-resolved fluorescence energy transfer (TR-FRET) readout. For that purpose BCL-2 (amino acids 1-211, C-terminal fused to a hexahistidine (6×His) tag (SEQ ID NO: 3) and a synthetic Bad BH3-derived peptide of sequence Biotin-PEG2-PEG2-NLWAAQRYGRELRR-NIe-SDEFVDSFKK-amide (SEQ ID NO: 2) served as protein receptor and tracer ligand respectively. The recombinant BCL-2 protein (expressed in E. coli) was purchased from BPS Bioscience (San Diego, Calif., USA). The Bad BH3-derived peptide can be obtained from e.g. Biosyntan (Berlin, Germany).
In the assay 11 different concentrations of each compound (0.1 nM, 0.33 nM, 1.1 nM, 3.8 nM, 13 nM, 44 nM, 0.15 μM, 0.51 μM, 1.7 μM, 5.9 μM and 20 μM) were typically measured as duplicates in the same microtiter plate. For that, 100-fold concentrated DMSO solutions were prepared by serial dilutions (1:3.4) of a 2 mM stock solution in a clear, 384-well microtiter plate (Greiner Bio-One, Frickenhausen, Germany). From there, 50 nl were transferred in a dark test plate (Greiner Bio-One. Frickenhausen, Germany). The assay was initiated by addition of 2 μl of a 2,5-fold concentrated Hs-BCL-XL solution (usually for a 1 nM end concentration in 5 μl reaction volume) in aqueous assay buffer [50 mM Tris/HCl pH 7, 100 mM sodium chloride (NaCl), 50 mM potassium fluoride (KF), 0.005% Tween-20, 2 mM DTT, 0.1% bovine gamma globulin (BGG)] to the compounds in the assay plate. This was followed by a 10-minute incubation step at 22° C. for pre-equilibration of the putative complex between His-BCL-XL and the compounds.
The mixture was incubated in the dark for one hour at 22° C. and then overnight at 4° C. The formation of BCL-XL/Bad complexes was determined by measuring the resonance energy transfer of the anti-His- Eu-cryptate antibody to the streptavidin-XL665 present in the reaction. For that purpose, the fluorescence emission at 620 nm and 665 nm after excitation at 330-350 nm was measured in a TR-FRET measuring instrument, for instance a Rubystar or a Pherastar (both from BMG Lab Technologies, Offenburg, Germany) or a Viewlux (Perkin-Elmer). The ratio of the emission at 665 nm and at 622 nm was used as indicator of the amount of BCL-XL/Bad complexes present.
The resulting data (ratio) were normalized, taking 0% inhibition as the mean value of control measurements (usually 32 data points) where all reagents were included. In this case 50 nl DMSO were used instead of compounds. A 100% inhibition corresponded to the mean value of control measurements (usually 32 data points) where all reagents except BCL-XL were included. IC50 values were determined by regression analysis based on a 4 parameter equation (minimum, maximum, IC50, Hill; Y=Max+(Min−Max)/(1+(X/IC50)^Hill) using the Screener Software (Genedata).
(TR-FRET usually uses a lanthanide donor and a delayed reading to cut background.)

Where [1] appears, read: Homo sapiens, SU-DHL-5, 5 h, read-out: Cytotox SUDHL5 [M] (median), SUDHL5 cells, cytotoxicity induction, CellTiter-Glo, 5 h incubation, median.
The mark [2] stands for this setting: read-out: Cytotox SUDHL5 [M] (median), SUDHL5 cells, cytotoxicity induction, CellTiter-Glo, 5 h incubation, median.

Description for SUDHL5: Therefore, cytotoxicity assays were run in parallel in SUDHL5 and SUDHL10 cells.
The different cell lines were plated in culture medium (RPMI 1640 [GIBCO #22400-089]supplemented with 10% Fetal Bovine Serum) at a density of 3.300 cells in 30 μl/well in a sterile, solid black, flat bottom, polystyrene, TC-treated 384-well microplate (Corning #3571) using Multidrop Combi Reagent Dispenser. As a control, medium without cells was also added to the plate. Cells were incubated in a humidified incubator at 37° C. overnight. On the next day, the cells were treated with compounds (stock solution, 10 mM in DMSO) using the HP D300 Digital Dispenser in a concentration range of 3.3×10e-5 M (33 μM) to 5×10e-9 M (5 nM) in a single-dot curve with at least 16 dilutions and a DMSO concentration of 0.33%. Rim wells were excluded. The cells were incubated for 5 h hours in a humidified incubator at 37° C. After this incubation, 30 μl of CellTiter-Glo@ Luminescent Cell Viability reagent (Promega, G7573) was added to each well using the Multidrop Combi Reagent Dispenser, followed by 15 min incubation on a shaker at room temperature. Finally, luminescence was read at 0.1 ms, with a gain of 3000 using the PHERAstar FS microplate reader (BMG Labtech).
The Bella DRC Master Sheet was used to calculate IC50s, with fixed CI=0 and C0=1.

Consider `Cc1c2c(nn1C)COCCCCn1c(C(=O)O)c(CCCOc3cccc4ccccc34)c3cccc-2c31` (racemic) [Example 1-36, (rac)-2,3-dimethyl-7-[3-(naphthalen-1-yloxy)propyl]-2,10,11,12,13,15-hexahydropyrazolo[4′,3′:9,10][1,6]oxazacycloundecino[8,7,6-hi]indole-8-carboxylic Acid], for which the IC50 with SUDHL5 (setting [1]) is 3.69e-06 M; against BCL-XL, over 20 µM.
Taken in the same sequence, the figures for `Cc1nn(C)c2c1-c1cccc3c(CCCOc4cccc5ccccc45)c(C(=O)O)n(c13)CCCCOCC2` (racemic) [Example 017, (rac)-1,3-dimethyl-7-[3-(1-naphthyloxy)propyl]-10,11,12,13,15,16-hexahydro-1H-pyrazolo[4′,3′:9,10][1,6]oxazacyclododecino[8,7,6-hi]indole-8-carboxylic Acid] were 1.36e-05 M and over 20 µM.
Taken in the same sequence, the figures for `Cc1ccc2c(CCCOc3cccc4c3CCCC4)c(C(=O)O)n3c2c1-c1c(C)nn(C)c1COCCCC3` (racemic) [Example 039, (rac)-1,3,4-trimethyl-7-[3-(5,6,7,8-tetrahydronaphthalen-1-yloxy)propyl]-110,11,12,13,15-hexahydropyrazolo[4′3′:9,10][1,6]oxazacycloundecino[8,7,6-hi]indole-8-carboxylic Acid] were 8.59e-06 M and over 20 µM.
Taken in the same sequence, the figures for `CC(C)c1c2c(nn1C)CN(C)CCCn1c(C(=O)O)c(CCCOc3cccc4ccccc34)c3cccc-2c31` (racemic) [Example 113, (rac)-7,10-dimethyl-1-[3-(naphthalen-1-yloxy)propyl]-11-(propan-2-yl)-4,5,6,7,8,10-hexahydropyrazolo[3′,4′:7,8][1,5]diazecino[9,10,1-hi]indole-2-carboxylic Acid] were 6.84e-06 M and over 20 µM.
Regarding `CCc1c2c(nn1C)CN(C)CCCn1c(C(=O)O)c(CCCOc3cccc4ccccc34)c3cccc-2c31` (racemic) [Example 141, (rac)-11-ethyl-7,10-dimethyl-1-[3-(1-naphthyloxy)propyl]-4,5,6,7,8,10-hexahydropyrazolo[3′,4′:7,8][1,5]diazecino[9,10,1-hi]indole-2-carboxylic Acid], the IC50 is 3.66e-06 M in the data set on SUDHL5 (setting [1]) and over 20 µM against BCL-XL.
Taken in the same sequence, the figures for `CCc1c2c(nn1C)CN(C)CCCn1c(C(=O)O)c(CCCOc3cccc4ccccc34)c3ccc(C)c-2c31` (racemic) [Example 144, (rac)-11-ethyl-7,10,12-trimethyl-1-[3-(1-naphthyloxy)propyl]-4,5,6,7,8,10-hexahydropyrazolo[3′,4′:7,8][1,5]diazecino[9,10,1-hi]indole-2-carboxylic Acid] were 2.55e-06 M and over 20 µM.
Turning to `CCc1c2c(nn1C)COCCCCn1c(C(=O)O)c(CCCOc3cccc4ccccc34)c3ccc(C)c-2c31` (racemic) [Example 153, (rac)-3-Ethyl-2,4-dimethyl-7-[3-(1-naphthyloxy)propyl]-2,10,11,12,13,15-hexahydropyrazolo[4′,3′:9,10][1,6]oxazacycloundecino[8,7,6-hi]indole-8-carboxylic Acid], the IC50 in the data set on SUDHL5 (setting [1]) was 1.65e-06 M; at BCL-XL, over 20 µM.
Take `CC(C)OCc1nn(C)c2c1-c1cccc3c(CCCOc4cccc5ccccc45)c(C(=O)O)n(c13)CCCCN(C)C2` (single isomer, unassigned) [Example 1-74, 1,14-dimethyl-7-[3-(naphthalen-1-yloxy)propyl]-3-[(propan-2-yloxy)methyl]-10,11,12,13,14,15-hexahydro-1H-pyrazolo[3′,4′:8,9][1,6]diazacycloundecino[10,11,1-hi]indole-8-carboxylic Acid]: the figures for the IC50 in the data set with SUDHL5 (setting [2]) and against BCL-XL were 9.82e-06 M and over 20 µM, respectively.
Taken in the same sequence, the figures for `CN1CCCn2c(C(=O)O)c(CCCOc3cccc4ccccc34)c3cccc(c32)-c2c(COc3ccc(N4CCN(S(=O)(=O)N(C)C)CC4)cc3)nn(C)c2C1` (single isomer, unassigned; enantiomer 1) [Example 1-15, (+)-11-({4-[4-(dimethylsulfamoyl)piperazin-1-yl]phenoxy}methyl)-7,9-dimethyl-1-[3-(naphthalen-1-yloxy)propyl]-4,5,6,7,8,9-hexahydropyrazolo[3′,4′:7,8][1,5]diazecino[9,10,1-hi]indole-2-carboxylic Acid (Enantiomer 1)] were 1.38e-06 M and over 20 µM.
Taken in the same sequence, the figures for `Cn1nc(COc2ccc(N3CCN(C(=O)C4CC4)CC3)cc2)c2c1COCCCCn1c(C(=O)O)c(CCCOc3cccc4ccccc34)c3cccc-2c31` (single isomer, unassigned; enantiomer 1) [Example 1-22, 3-({4-[4-(cyclopropylcarbonyl)piperazin-1-yl]phenoxy}methyl)-1-methyl-7-[3-(naphthalen-1-yloxy)propyl]-1,10,11,12,13,15-hexahydropyrazolo[4′,3′:9,10][1,6]oxazacycloundecino[8,7,6-hi]indole-8-carboxylic Acid (Enantiomer 1)] were 1.37e-06 M and over 20 µM.
The matching figures for `Cc1nn(C)c2c1-c1cccc3c(CCCOc4cccc5ccccc45)c(C(=O)O)n(c13)CCCN(C)C2` (single isomer, unassigned; enantiomer 1) [Example 1-31, 7,9,11-trimethyl-1-[3-(naphthalen-1-yloxy)propyl]-4,5,6,7,8,9-hexahydropyrazolo[3′,4′:7,8][1,5]diazecino[9,10,1-hi]indole-2-carboxylic Acid-N-ethylethanamine Salt (Enantiomer 1)]: 4.6e-06 M and over 20 µM.
`Cc1c2c(nn1C)COCCCCn1c(C(=O)O)c(CCCOc3cccc4ccccc34)c3cccc-2c31` (single isomer, unassigned; enantiomer 1) [Example 1-37, (+)-2,3-dimethyl-7-[3-(naphthalen-1-yloxy)propyl]-2,10,11,12,13,15-hexahydropyrazolo[4′,3′:9,10][1,6]oxazacycloundecino[8,7,6-hi]indole-8-carboxylic Acid (Enantiomer 1)]: the IC50 was 1.92e-06 M in the data set on SUDHL5 (setting [2]) and over 20 µM at BCL-XL.
In the case of `CN1CCCn2c(C(=O)O)c(CCCOc3cccc4ccccc34)c3cccc(c32)-c2c(CN3CCOCC3)nn(C)c2C1` (single isomer, unassigned; enantiomer 1) [Example 1-43, (+)-7,9-dimethyl-11-(morpholin-4-ylmethyl)-1-[3-(naphthalen-1-yloxy)propyl]-4,5,6,7,8,9-hexahydropyrazolo[3′,4′:7,8][1,5]diazecino[9,10,1-hi]indole-2-carboxylic Acid (Enantiomer 1)], the IC50 with SUDHL5 (setting [1]) was 6.9e-06 M; at BCL-XL, over 20 µM.
As for `CN1CCCn2c(C(=O)O)c(CCCOc3cccc4ccccc34)c3cccc(c32)-c2c(COc3ccc(N4CCN(S(C)(=O)=O)CC4)cc3)nn(C)c2C1` (single isomer, unassigned; enantiomer 1) [Example 1-46, (+)-7,9-dimethyl-11-({4-[4-(methylsulfonyl)piperazin-1-yl]phenoxy}methyl)-1-[3-(naphthalen-1-yloxy)propyl]-4,5,6,7,8,9-hexahydropyrazolo[3′,4′:7,8][1,5]diazecino[9,10,1-hi]indole-2-carboxylic Acid (Enantiomer 1)], the IC50 is 1.53e-06 M in the data set on SUDHL5 (setting [2]) and over 20 µM against BCL-XL.
